Results taken from PubChem BioAssay AID504510 (The Scripps Research Institute Molecular Screening Center, 2011).
Activity calls are given as the source filed them. How the calls were made is not given here.

Assay: cell viability loss from compound exposure – absorbance, serum-free and serum media, set 2, cytotoxicity control for LYPLA1 inhibitor project, late-stage follow-up (AID 504510)
Details: serum-free vs serum media

Row | Compound | CC50 (serum-free media) | CC50 (with FCS)
1 | COCC1CCCCN1C(=O)n1ncc(C(O)(c2ccccc2)c2ccccc2)n1 (centres undefined) | > 50 µM (inactive) | > 50 µM (inactive)
2 | CCC1CCCCN1C(=O)n1ncc(C(O)(c2ccccc2)c2ccccc2)n1 (centres undefined) | > 50 µM (inactive) | > 50 µM (inactive)
